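Compound exposure: 48 hours, 5 concentrations, 96-well plates. GI50 marks 50% less growth.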 Calls of active or inactive are those of the source. Rule as the data show it: active = GI50 up to about 1.1 µM and inactive = higher.
Experiments:
Experiment in all cases: NCI tumour cell line growth inhibition, 48 h
LOX IMVI = system: LOX IMVI
A549 = system: A549
HCT-15 = system: HCT-15
MDA-N = system: MDA-N
UACC-257 = system: UACC-257
Hs-578T = system: Hs-578T
HOP-62 = system: HOP-62
A498 = system: A498
NCI-H23 = system: NCI-H23
PC-3 = system: PC-3
MDA-MB-435 = system: MDA-MB-435
786-0 = system: 786-0
SK-MEL-28 = system: SK-MEL-28
HCC 2998 = system: HCC 2998
OVCAR-4 = system: OVCAR-4
NCI/ADR-RES = system: NCI/ADR-RES
COLO 205 = system: COLO 205
NCI-H522 = system: NCI-H522
HT-29 = system: HT-29
SK-OV-3 = system: SK-OV-3
SNB-19 = system: SNB-19
HOP-92 = system: HOP-92
SK-MEL-2 = system: SK-MEL-2
MDA-MB-231 = system: MDA-MB-231
OVCAR-8 = system: OVCAR-8
M14 = system: M14
SF-539 = system: SF-539
NCI-H460 = system: NCI-H460
U-251 = system: U-251
SF-295 = system: SF-295
RXF 393 = system: RXF 393
ACHN = system: ACHN
SF-268 = system: SF-268
SK-MEL-5 = system: SK-MEL-5
EKVX = system: EKVX
UO-31 = system: UO-31
HCT-116 = system: HCT-116
BT-549 = system: BT-549
SN12C = system: SN12C
MOLT-4 = system: MOLT-4
T47D = system: T47D
SNB-75 = system: SNB-75
OVCAR-3 = system: OVCAR-3
SR = system: SR
SW-620 = system: SW-620
TK-10 = system: TK-10
CAKI-1 = system: CAKI-1
DU-145 = system: DU-145
CCRF-CEM = system: CCRF-CEM
IGROV-1 = system: IGROV-1
NCI-H226 = system: NCI-H226
KM12 = system: KM12
MCF7 = system: MCF7
UACC-62 = system: UACC-62
OVCAR-5 = system: OVCAR-5
Malme-3M = system: Malme-3M
RPMI-8226 = system: RPMI-8226
K562 = system: K562

O=C(Cc1nc2ccc([N+](=O)[O-])cc2nc1O)C(=O)Nc1cc(Cl)c(Cl)cc1Cl
GI50 (LOX IMVI): 69 µM (inactive)
GI50 (A549): > 100 µM (inactive)
GI50 (HCT-15): > 100 µM
GI50 (MDA-N): > 100 µM (inactive)
GI50 (UACC-257): > 100 µM (inactive)
GI50 (Hs-578T): > 100 µM (inactive)
GI50 (HOP-62): > 100 µM (inactive)
GI50 (A498): > 100 µM (inactive)
GI50 (NCI-H23): > 100 µM (inactive)
GI50 (PC-3): > 100 µM (inactive)
GI50 (MDA-MB-435): > 100 µM (inactive)
GI50 (786-0): > 100 µM (inactive)
GI50 (SK-MEL-28): > 100 µM (inactive)
GI50 (HCC 2998): > 100 µM (inactive)
GI50 (OVCAR-4): > 100 µM (inactive)
GI50 (NCI/ADR-RES): > 100 µM (inactive)
GI50 (COLO 205): > 100 µM (inactive)
GI50 (NCI-H522): > 100 µM (inactive)
GI50 (HT-29): > 100 µM (inactive)
GI50 (SK-OV-3): 71.3 µM (inactive)
GI50 (SNB-19): > 100 µM (inactive)
GI50 (HOP-92): > 100 µM (inactive)
GI50 (SK-MEL-2): > 100 µM (inactive)
GI50 (MDA-MB-231): > 100 µM (inactive)
GI50 (OVCAR-8): > 100 µM (inactive)
GI50 (M14): > 100 µM (inactive)
GI50 (SF-539): > 100 µM (inactive)
GI50 (NCI-H460): > 100 µM (inactive)
GI50 (U-251): > 100 µM (inactive)
GI50 (SF-295): > 100 µM (inactive)
GI50 (RXF 393): > 100 µM (inactive)
GI50 (ACHN): > 100 µM (inactive)
GI50 (SF-268): > 100 µM (inactive)
GI50 (SK-MEL-5): > 100 µM (inactive)
GI50 (EKVX): 54.3 µM (inactive)
GI50 (UO-31): > 100 µM (inactive)
GI50 (HCT-116): > 100 µM (inactive)
GI50 (BT-549): > 100 µM (inactive)
GI50 (SN12C): > 100 µM (inactive)
GI50 (MOLT-4): 51.4 µM (inactive)
GI50 (T47D): > 100 µM (inactive)
GI50 (SNB-75): > 100 µM (inactive)
GI50 (OVCAR-3): > 100 µM (inactive)
GI50 (SR): 41.8 µM (inactive)
GI50 (SW-620): > 100 µM (inactive)
GI50 (TK-10): > 100 µM (inactive)
GI50 (CAKI-1): > 100 µM (inactive)
GI50 (DU-145): > 100 µM (inactive)
GI50 (CCRF-CEM): > 100 µM (inactive)
GI50 (IGROV-1): > 100 µM (inactive)
GI50 (NCI-H226): > 100 µM (inactive)
GI50 (KM12): 65.6 µM (inactive)
GI50 (MCF7): > 100 µM (inactive)
GI50 (UACC-62): > 100 µM (inactive)
GI50 (OVCAR-5): > 100 µM (inactive)
GI50 (Malme-3M): > 100 µM (inactive)

CC1=CC(=O)[C@@H](O)[C@]2(C)[C@H]3[C@@]4(O)OC[C@]35[C@H]([C@@H](C)[C@H]4O)[C@@H](O)C(=O)O[C@@H]5C[C@@H]12
GI50 (LOX IMVI): 0.0895 µM (active)
GI50 (A549): 0.789 µM (active)
GI50 (HCT-15): 0.175 µM
GI50 (MDA-N): 0.213 µM (active)
GI50 (UACC-257): 0.276 µM (active)
GI50 (Hs-578T): 0.195 µM (active)
GI50 (HOP-62): 0.21 µM (active)
GI50 (A498): 0.448 µM (active)
GI50 (NCI-H23): 0.192 µM (active)
GI50 (PC-3): 0.293 µM (active)
GI50 (MDA-MB-435): 0.232 µM (active)
GI50 (786-0): 0.349 µM (active)
GI50 (SK-MEL-28): 0.156 µM (active)
GI50 (HCC 2998): 0.227 µM (active)
GI50 (OVCAR-4): 0.597 µM (active)
GI50 (NCI/ADR-RES): 2.29 µM (inactive)
GI50 (COLO 205): 0.543 µM (active)
GI50 (NCI-H522): 0.181 µM (active)
GI50 (HT-29): 0.387 µM (active)
GI50 (SK-OV-3): 0.607 µM (active)
GI50 (SNB-19): 0.115 µM (active)
GI50 (HOP-92): 0.327 µM (active)
GI50 (SK-MEL-2): 0.219 µM (active)
GI50 (MDA-MB-231): 0.252 µM (active)
GI50 (OVCAR-8): 0.279 µM (active)
GI50 (M14): 0.25 µM (active)
GI50 (RPMI-8226): 0.445 µM (active)
GI50 (SF-539): 0.0743 µM (active)
GI50 (NCI-H460): 0.214 µM (active)
GI50 (U-251): 0.0509 µM (active)
GI50 (SF-295): 0.339 µM (active)
GI50 (RXF 393): 0.391 µM (active)
GI50 (ACHN): 0.348 µM (active)
GI50 (SF-268): 0.231 µM (active)
GI50 (SK-MEL-5): 0.118 µM (active)
GI50 (EKVX): 0.771 µM (active)
GI50 (UO-31): 0.416 µM (active)
GI50 (HCT-116): 0.0428 µM (active)
GI50 (BT-549): 0.318 µM (active)
GI50 (MOLT-4): 1.55 µM (inactive)
GI50 (T47D): 0.225 µM (active)
GI50 (SNB-75): 0.0706 µM (active)
GI50 (OVCAR-3): 0.247 µM (active)
GI50 (SR): 77.6 µM (inactive)
GI50 (SW-620): 0.428 µM (active)
GI50 (TK-10): 0.338 µM (active)
GI50 (CAKI-1): 0.811 µM (active)
GI50 (DU-145): 0.33 µM (active)
GI50 (CCRF-CEM): 0.261 µM (active)
GI50 (K562): 0.475 µM (active)
GI50 (IGROV-1): 0.106 µM (active)
GI50 (NCI-H226): 0.194 µM (active)
GI50 (KM12): 0.202 µM (active)
GI50 (MCF7): 0.0382 µM (active)
GI50 (UACC-62): 0.312 µM (active)
GI50 (OVCAR-5): 0.706 µM (active)
GI50 (Malme-3M): 0.0438 µM (active)

From ChEMBL document CHEMBL1201862, “PubChem BioAssay data set” (2004)
